Literature values in patent publication US6790849B2, “Methods and compositions using optically pure (-) cetirizine in combination with leukotriene inhibitors or decongestants” (Sepracor Inc., priority 1998, dated 2004).
Read-outs that look alike come from different tables or passages of the source.

Experiments:
[1] = test system: allergen- or exercise-induced bronchoconstriction; conditions: patients, doses as large as 20 mg
LTB4 formation = conditions: several species
[2] = test system: leukotriene-dependent smooth muscle contractions; conditions: in vitro, guinea pig and human airways
[3] = for efficacy: 373 patients
[4] = test system: leukotriene (LTH4, LTC4, LTD4, and LTE4) formation
LTD4 [5] = conditions: guinea pigs
LTD4 [6] = conditions: in vivo
[7] = test system: three leukotrienes in conducting airway smooth muscle; conditions: in vitro, laboratory animals and humans
LTD4 [8] = conditions: in vivo; remark: listed apart in the source

O=C(O)COCCN1CCN(C(c2ccccc2)c2ccc(Cl)cc2)CC1 (racemic) [cetirizine]
preventing allergen- or exercise-induced bronchoconstriction [1]: not uniformly effective

CC(c1cc2ccccc2s1)N(O)C(N)=O (racemic) [zileuton, (±)-1-(1-Benso[b]thien-2-ylethyl)-1-hydroxyurea]
LTB4 formation ex vivo (LTB4 formation): inhibitor
leukotriene-dependent smooth muscle contractions [2]: inhibits
efficacy ([3]; 400 mg): failed to do so
efficacy ([3]; 600 mg four times daily): required to provide efficacy
adverse effects reported in some patients ([3]; some patients): headache, pain, asthenia, dyspepsia, nausea, and myalgia
leukotriene (LTH4, LTC4, LTD4, and LTE4) formation in vitro [4]: inhibit

CC(C)(C)c1ccc(C(O)CCCN2CCC(C(O)(c3ccccc3)c3ccccc3)CC2)cc1 (stereo not drawn) [terfenadine]
increase in airway resistance caused by LTD4 (LTD4 [5]): suppressed

COc1cc(C(=O)NS(=O)(=O)c2ccccc2C)ccc1Cc1cn(C)c2ccc(NC(=O)OC3CCCC3)cc12 [zafirlukast, 4-(5-cyclopentyloxy-carbonylamino-1-methyl-indol-8-ylmethyl)-3-methoxy-N-o-tolylsulfonylbenzamide]
adverse effects reported in some patients: headache, infection, nausea, diarrhea, pain, asthenia, abdominal pain, dizziness, myalgia, fever, vomiting, SGPT elevation, and dyspepsia
inhaled LTD4-induced influx of eosinophils into animal lungs (LTD4 [6]): inhibited
contractile activity of three leukotrienes in conducting airway smooth muscle [7]: antagonized
intradermal LTD4-induced increases in cutaneous vascular permeability (LTD4 [8]): prevented
